Experiments:
medaka ARβ (mArβ) [1] = target: T1, medaka ARβ (mArβ) (Oryzias latipes, UniProt D1MV73); assay: Medaka ARβ reporter gene assay, agonist assay; format: cell-based, Japanese medaka (Oryzias latipes); settings: MAC = 1.0 × 10^−5 M
T1 sequence (D1MV73 1-744): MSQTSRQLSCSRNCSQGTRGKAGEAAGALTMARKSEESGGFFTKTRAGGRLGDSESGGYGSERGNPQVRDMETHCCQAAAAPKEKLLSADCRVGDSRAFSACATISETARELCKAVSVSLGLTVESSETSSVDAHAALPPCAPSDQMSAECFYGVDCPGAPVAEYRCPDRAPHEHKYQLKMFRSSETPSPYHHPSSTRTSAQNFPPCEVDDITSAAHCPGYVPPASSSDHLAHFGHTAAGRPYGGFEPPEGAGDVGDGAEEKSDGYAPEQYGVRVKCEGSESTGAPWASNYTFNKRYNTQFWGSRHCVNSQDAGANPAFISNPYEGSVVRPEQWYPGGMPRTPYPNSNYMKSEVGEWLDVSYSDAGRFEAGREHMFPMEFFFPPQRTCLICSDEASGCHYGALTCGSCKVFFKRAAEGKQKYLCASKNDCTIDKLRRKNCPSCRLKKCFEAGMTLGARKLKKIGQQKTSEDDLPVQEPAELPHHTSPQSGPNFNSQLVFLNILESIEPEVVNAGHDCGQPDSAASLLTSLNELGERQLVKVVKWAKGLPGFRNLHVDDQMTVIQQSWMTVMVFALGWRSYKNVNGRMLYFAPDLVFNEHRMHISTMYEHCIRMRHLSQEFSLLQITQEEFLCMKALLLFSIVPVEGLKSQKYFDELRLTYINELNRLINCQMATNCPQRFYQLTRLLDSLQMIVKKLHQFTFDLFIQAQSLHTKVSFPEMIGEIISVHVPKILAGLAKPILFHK

medaka Esr1 (mEsr1) [2] = target: T2, medaka Esr1 (mEsr1) (Oryzias latipes, UniProt P50241); assay: Medaka Esr1 reporter gene assay, antagonist assay; format: cell-based, Japanese medaka (Oryzias latipes); settings: E2 spiked at 1.0 nM (B); MAC = 1.0 × 10^−5 M
T2 sequence (P50241 1-620): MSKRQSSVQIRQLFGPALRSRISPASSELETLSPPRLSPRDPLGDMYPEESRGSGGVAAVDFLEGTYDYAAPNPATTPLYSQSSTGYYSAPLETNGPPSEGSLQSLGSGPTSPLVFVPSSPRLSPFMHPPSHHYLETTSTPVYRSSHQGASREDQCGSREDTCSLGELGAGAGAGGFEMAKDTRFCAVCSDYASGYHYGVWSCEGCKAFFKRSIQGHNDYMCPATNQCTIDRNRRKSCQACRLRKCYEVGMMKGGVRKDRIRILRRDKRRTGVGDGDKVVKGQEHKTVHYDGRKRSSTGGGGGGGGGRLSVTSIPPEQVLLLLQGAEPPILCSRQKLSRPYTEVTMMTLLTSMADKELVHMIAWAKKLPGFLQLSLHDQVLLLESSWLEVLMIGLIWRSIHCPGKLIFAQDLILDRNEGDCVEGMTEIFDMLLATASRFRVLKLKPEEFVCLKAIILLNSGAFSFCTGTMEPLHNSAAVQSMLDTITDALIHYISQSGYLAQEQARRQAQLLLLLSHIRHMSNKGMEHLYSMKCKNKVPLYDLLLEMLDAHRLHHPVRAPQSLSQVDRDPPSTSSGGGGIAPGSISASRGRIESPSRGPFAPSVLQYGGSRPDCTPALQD

medaka ARβ (mArβ) [3] = target: T1, medaka ARβ (mArβ); assay: Medaka ARβ reporter gene assay, antagonist assay; format: cell-based, Japanese medaka (Oryzias latipes); settings: 11‐KT spiked at 50 nM (D); MAC = 1.0 × 10^−5 M
[4] = tested on: Japanese medaka (Oryzias latipes); assay: Fish Short‐Term Reproduction Assay; format: in vivo; settings: for GSI Female / GSI Male / HSI Female / HSI Male / Length Female / Length Male / Weight Female / Weight Male: completion of exposure
medaka Esr1 (mEsr1) [5] = target: T2, medaka Esr1 (mEsr1); assay: cell-based; parameters: species or system Japanese medaka (Oryzias latipes)
[6] = 18.8 μg/L measured, 21 d, sig. ↑ vs control
[7] = 51.8 μg/L measured, 21 d, sig. ↑ vs control
[8] = 51.8 μg/L measured, 21 d, sig. ↓ vs control
[9] = 170 μg/L measured, 21 d, sig. ↑ vs control
[10] = measured concentration 5.63 μg/L
[11] = measured concentration 18.8 μg/L
[12] = measured concentration 51.8 μg/L
[13] = measured concentration 170 μg/L

4‐Nonylphenol (branched) [Chemical 4NP]
Agonistic activity (medaka ARβ (mArβ) [1]): NE (MAC = 1.0 × 10^−5 M) | Antagonistic activity (medaka Esr1 (mEsr1) [2]): NE (MAC = 1.0 × 10^−5 M)^(B) | Antagonistic activity (medaka ARβ (mArβ) [3]): NE (MAC = 1.0 × 10^−5 M)^(D) | Fertility rate ([4]; 5.63 μg/L measured, 21 d): 97 ± 2.2% | Hepatic VTG, female ([4]; 5.63 μg/L measured, 21 d): 866 ± 277 ng/mg‐liver | Mortality ([4]; 5.63 μg/L measured, 21 d): 0.0% | Mortality, number of dead fish ([4]; 5.63 μg/L measured, 21 d): 0 | Number of fertilized eggs (per female per day) ([4]; 5.63 μg/L measured, 21 d): 20 ± 1.2 | Number of total eggs (per female per day) ([4]; 5.63 μg/L measured, 21 d): 21 ± 0.9 | SSC female (joint plates with papillary processes) ([4]; 5.63 μg/L measured, 21 d): 0 ± 0 | SSC male (joint plates with papillary processes) ([4]; 5.63 μg/L measured, 21 d): 92 ± 15 | Hepatic VTG, male ([4]; 5.63 μg/L measured, 21 d, sig. ↑ vs control): 32 ± 31 ng/mg‐liver | Fertility rate ([4]; 18.8 μg/L measured, 21 d): 94 ± 7.7% | Mortality ([4]; 18.8 μg/L measured, 21 d): 0.0% | Mortality, number of dead fish ([4]; 18.8 μg/L measured, 21 d): 0 | Number of fertilized eggs (per female per day) ([4]; 18.8 μg/L measured, 21 d): 17 ± 5.4 | Number of total eggs (per female per day) ([4]; 18.8 μg/L measured, 21 d): 18 ± 4.9 | SSC female (joint plates with papillary processes) ([4]; 18.8 μg/L measured, 21 d): 0 ± 0 | SSC male (joint plates with papillary processes) ([4]; 18.8 μg/L measured, 21 d): 79 ± 21 | Hepatic VTG, female [4, 6]: 1,153 ± 300 ng/mg‐liver | Hepatic VTG, male [4, 6]: 375 ± 320 ng/mg‐liver | Mortality ([4]; 51.8 μg/L measured, 21 d): 0.0% | Mortality, number of dead fish ([4]; 51.8 μg/L measured, 21 d): 0 | SSC female (joint plates with papillary processes) ([4]; 51.8 μg/L measured, 21 d): 0 ± 0 | SSC male (joint plates with papillary processes) ([4]; 51.8 μg/L measured, 21 d): 97 ± 13 | Hepatic VTG, female [4, 7]: 1,348 ± 258 ng/mg‐liver | Hepatic VTG, male [4, 7]: 2,431 ± 1,455 ng/mg‐liver | Fertility rate [4, 8]: 61 ± 10% | Number of total eggs (per female per day) [4, 8]: 13 ± 3.0 | Mortality ([4]; 170 μg/L measured, 21 d): 4.2% | Mortality, number of dead fish ([4]; 170 μg/L measured, 21 d): 1 | SSC female (joint plates with papillary processes) ([4]; 170 μg/L measured, 21 d): 0 ± 0 | SSC male (joint plates with papillary processes) ([4]; 170 μg/L measured, 21 d): 87 ± 12 | Hepatic VTG, female [4, 9]: 1,212 ± 506 ng/mg‐liver | Hepatic VTG, male [4, 9]: 5,009 ± 1830 ng/mg‐liver | Fertility rate ([4]; 170 μg/L measured, 21 d, sig. ↓ vs control): 33 ± 9.7% | Change of hepatic VTG levels in females (in words) ([4]; 21 d): significant increase | Fecundity, number of total eggs (in words) ([4]; 21 d): statistically significant decrease | LOEC, elevated hepatic VTG in males ([4]; 21 d): 5.63 µg/L | LOECmVTG ([4]; LOEC on VTG induction in males): 5.63 µg/L | LOECREPRO ([4]; LOEC on reproduction (fecundity and/or fertility)): 51.8 µg/L | LOECTOX ([4]; lowest observed effect concentration on mortality): ND (>170) μg/L | GSI Female [4, 10]: 7.8 ± 1.6% | GSI Male [4, 10]: 1.02 ± 0.07% | HSI Female [4, 10]: 3.4 ± 0.55% | HSI Male [4, 10]: 1.7 ± 0.10% | Length Female [4, 10]: 36.7 ± 1.3 mm | Length Male [4, 10]: 36.8 ± 1.3 mm | Weight Female [4, 10]: 535 ± 82 mg | Weight Male [4, 10]: 515 ± 45 mg | GSI Female [4, 11]: 8.9 ± 0.6% | GSI Male [4, 11]: 1.08 ± 0.06% | HSI Female [4, 11]: 4.1 ± 0.59% | HSI Male [4, 11]: 1.7 ± 0.28% | Length Female [4, 11]: 35.5 ± 1.2 mm | Length Male [4, 11]: 37.5 ± 0.6 mm | Weight Female [4, 11]: 500 ± 46 mg | Weight Male [4, 11]: 552 ± 34 mg | GSI Female [4, 12]: 7.7 ± 0.6% | GSI Male [4, 12]: 1.15 ± 0.20% | HSI Female [4, 12]: 4.2 ± 0.66% | HSI Male [4, 12]: 2.0 ± 0.22% | Length Female [4, 12]: 36.4 ± 0.8 mm | Length Male [4, 12]: 37.6 ± 1.2 mm | Weight Female [4, 12]: 537 ± 45 mg | Weight Male [4, 12]: 552 ± 69 mg | GSI Female [4, 13]: 7.9 ± 1.5% | GSI Male [4, 13]: 1.05 ± 0.15% | HSI Female [4, 13]: 3.9 ± 0.58% | HSI Male [4, 13]: 2.4 ± 0.10% | Length Female [4, 13]: 36.0 ± 1.6 mm | Length Male [4, 13]: 38.6 ± 1.5 mm | Weight Female [4, 13]: 540 ± 64 mg | Weight Male [4, 13]: 602 ± 64 mg | In vitro positive: Esr (medaka Esr1 (mEsr1) [5]; mode of action in which EC50 or PC10 was obtained in RGA): Esr | EC50 (medaka Esr1 (mEsr1) [5]; read-out: Agonistic activity EC50, HEK293 cells): 22 nM

From article PMC9297976 (Journal of Applied Toxicology, 2021)
